# Results published in patent publication US20100029669A1, “3-(SUBSTITUTED ETHYL)-RIFAMYCIN DERIVATIVES USEFUL AS ANTIMICROBIAL AGENTS” (priority 2008, published 2010).
# Legend:
# [1] = system: Staphylococcus aureus OC4172; experiment: MIC, microdilution broth method (NCCLS), strain C; format: cell-based; conditions: cation adjusted Mueller-Hinton broth, 35° C., 16-20 hours
# [2] = system: Methicillin-resistant Staphylococcus aureus OC 3726 COL; experiment: MIC, microdilution broth method (NCCLS), strain B; conditions: read-out: MIC B Strain
# Protocol: (§1) The in vitro antimicrobial activity of representative compounds of the present invention was determined by the microdilution broth method following the test method from the National Committee for Clinical Laboratory Standards (NCCLS).
# (§2) In this method two-fold serial dilutions of drug in cation adjusted Mueller-Hinton broth were added to wells in microdilution trays. The test organisms were prepared by adjusting the turbidity of actively growing broth cultures so that the final concentration of test organism after it is added to the wells was approximately 5×10^4 CFU/well. Following inoculation of the microdilution trays, the trays were incubated at 35° C. for 16-20 hours and then read. The amount of growth in the wells containing the test compound was compared with the amount of growth in the growth-control wells (no test compound) used in each tray.
# [3] = system: Methicillin-resistant Staphylococcus aureus OC 2878; experiment: MIC, microdilution broth method (NCCLS), strain D; conditions: read-out: MIC D Strain
# Protocol: as §1, §2
# [4] = system: Enterococcus faecium OC 3312 vancomycin resistant; experiment: MIC, microdilution broth method (NCCLS), strain A; conditions: read-out: MIC A Strain
# Protocol: as §1, §2
Compound,MIC [1] [µg/mL],MIC [2] [µg/mL],MIC [3] [µg/mL],MIC [4] [µg/mL]
"CO[C@H]1/C=C/O[C@@]2(C)Oc3c(C)c(O)c4c(O)c(c([C@H](O)C[N+](=O)[O-])c(O)c4c3C2=O)NC(=O)/C(C)=C\C=C\[C@H](C)[C@H](O)[C@@H](C)[C@@H](O)[C@@H](C)[C@H](OC(C)=O)[C@@H]1C (single isomer, unassigned) [Compound 5]",8,8,8,8
CO[C@H]1/C=C/O[C@@]2(C)Oc3c(C)c(O)c4c(c3C2=O)C(=O)C(CC[N+](=O)[O-])=C(NC(=O)/C(C)=C\C=C\[C@H](C)[C@H](O)[C@@H](C)[C@@H](O)[C@@H](C)[C@H](OC(C)=O)[C@@H]1C)C4=O [Compound 1],≤ 0.03,≤ 0.03,≤ 0.03,0.12
CO[C@H]1/C=C/O[C@@]2(C)Oc3c(C)c(O)c4c(O)c(c(CC[N+](=O)[O-])c(O)c4c3C2=O)NC(=O)/C(C)=C\C=C\[C@H](C)[C@H](O)[C@@H](C)[C@@H](O)[C@@H](C)[C@H](OC(C)=O)[C@@H]1C [Compound 2],≤ 0.03,≤ 0.03,≤ 0.03,1
CO[C@H]1/C=C/O[C@@]2(C)Oc3c(C)c(O)c4c(O)c(c(C(C[N+](=O)[O-])C[N+](=O)[O-])c(O)c4c3C2=O)NC(=O)/C(C)=C\C=C\[C@H](C)[C@H](O)[C@@H](C)[C@@H](O)[C@@H](C)[C@H](OC(C)=O)[C@@H]1C [Compound 3],0.25,0.5,0.25,4
CO[C@H]1/C=C/O[C@@]2(C)Oc3c(C)c(O)c4c(c3C2=O)C(=O)C(C(C[N+](=O)[O-])C[N+](=O)[O-])=C(NC(=O)/C(C)=C\C=C\[C@H](C)[C@H](O)[C@@H](C)[C@@H](O)[C@@H](C)[C@H](OC(C)=O)[C@@H]1C)C4=O [Compound 4],0.5,1,0.5,2
CO[C@H]1/C=C/O[C@@]2(C)Oc3c(C)c(O)c4c(O)c(c(C(CN)CN)c(O)c4c3C2=O)NC(=O)/C(C)=C\C=C\[C@H](C)[C@H](O)[C@@H](C)[C@@H](O)[C@@H](C)[C@H](OC(C)=O)[C@@H]1C [Compound 8],0.25,0.5,1,1
CO[C@H]1/C=C/O[C@@]2(C)Oc3c(C)c(O)c4c(O)c(c(CCNCc5ccccc5)c(O)c4c3C2=O)NC(=O)/C(C)=C\C=C\[C@H](C)[C@H](O)[C@@H](C)[C@@H](O)[C@@H](C)[C@H](OC(C)=O)[C@@H]1C [Compound 9],≤ 0.03,≤ 0.03,≤ 0.03,0.12
CO[C@H]1/C=C/O[C@@]2(C)Oc3c(C)c(O)c4c(O)c(c(CCN(C)C)c(O)c4c3C2=O)NC(=O)/C(C)=C\C=C\[C@H](C)[C@H](O)[C@@H](C)[C@@H](O)[C@@H](C)[C@H](OC(C)=O)[C@@H]1C [Compound 10],≤ 0.03,≤ 0.03,0.06,0.25
CO[C@H]1/C=C/O[C@@]2(C)Oc3c(C)c(O)c4c(O)c(c(CCN5CCCCC5)c(O)c4c3C2=O)NC(=O)/C(C)=C\C=C\[C@H](C)[C@H](O)[C@@H](C)[C@@H](O)[C@@H](C)[C@H](OC(C)=O)[C@@H]1C [Compound 11],≤ 0.03,0.06,0.06,0.25
CO[C@H]1/C=C/O[C@@]2(C)Oc3c(C)c(O)c4c(O)c(c(CCNCc5ccc(N6CCN(C)CC6)cc5)c(O)c4c3C2=O)NC(=O)/C(C)=C\C=C\[C@H](C)[C@H](O)[C@@H](C)[C@@H](O)[C@@H](C)[C@H](OC(C)=O)[C@@H]1C [Compound 12],≤ 0.03,≤ 0.03,≤ 0.03,0.5
CO[C@H]1/C=C/O[C@@]2(C)Oc3c(C)c(O)c4c(O)c(c(CCNCc5ccc(-n6cccn6)cc5)c(O)c4c3C2=O)NC(=O)/C(C)=C\C=C\[C@H](C)[C@H](O)[C@@H](C)[C@@H](O)[C@@H](C)[C@H](OC(C)=O)[C@@H]1C [Compound 13],0.12,0.12,0.12,0.5
CO[C@H]1/C=C/O[C@@]2(C)Oc3c(C)c(O)c4c(O)c(c(CCNCc5ccc(-c6ncccn6)cc5)c(O)c4c3C2=O)NC(=O)/C(C)=C\C=C\[C@H](C)[C@H](O)[C@@H](C)[C@@H](O)[C@@H](C)[C@H](OC(C)=O)[C@@H]1C [Compound 14],0.5,1,0.5,1
CO[C@H]1/C=C/O[C@@]2(C)Oc3c(C)c(O)c4c(O)c(c(CCNCc5ccc(-c6cccnn6)cc5)c(O)c4c3C2=O)NC(=O)/C(C)=C\C=C\[C@H](C)[C@H](O)[C@@H](C)[C@@H](O)[C@@H](C)[C@H](OC(C)=O)[C@@H]1C [Compound 15],0.25,0.5,0.25,1
